Test results reported in patent US20260248787A9, “MEDICAMENT FOR TREATING CANCER COMPRISING OPTICALLY ACTIVE AZABICYCLO RING DERIVATIVE” (Sumitomo Pharma Co., Ltd., priority 2023, published 2026).
Marks after values point to notes of the source that are not given here.

Test: Phase 1/2 first-in-human clinical study, safety evaluation (DLT, TEAE, SAE)

C=C1C[C@@H]2CC[C@H]1[C@@H](C(=O)N1CCC3(CC1)CN(c1ncncc1Oc1ccc(F)cc1C(=O)N(C(C)C)C(C)C)C3)N2 [the present compound, 5-fluoro-2-[(4-{7-[(1S,3S,4R)-5-methylidene-2-azabicyclo[2.2.2]octane-3-carbonyl]-2,7-diazaspiro[3.5]nonan-2-yl}pyrimidin-5-yl)oxy]-N,N-di(propan-2-yl)benzamide]
Patients with any DLTs (40 mg BID Arm B (N=4; one patient not DLT evaluable)): 0* n (%) and (0.0) n (%) | cases of differentiation syndrome in patients with MLLr or NPM1m (24 patients enrolled): no cases | grade of the majority of TEAEs related to the present compound (24 patients enrolled): Grade 1 or 2 | patients who experienced at least one TEAE (24 patients enrolled): 24 patients | related TEAE leading to dose withdrawn or dose reduction (24 patients enrolled): No related TEAE leading to dose withdrawn or dose reduction | patients who developed DLT (24 patients enrolled (40-120 mg BID Arm A, 40-60 mg BID Arm B)): none | patients with fatal SAEs, total (all unrelated) (24 patients, Arm A + Arm B): 8 patients | patients with serious adverse events (SAEs), total (24 patients, Arm A + Arm B): 15 patients | safety in humans (40 to 300 mg BID (Examples 1 and 5)): confirmed to be safe | Treatment-related QT interval prolongation events (43 patients, 40-200 mg BID): not reported | cases of differentiation syndrome in patients with MLLr or NPM1m (43 patients, 40-200 mg BID): no cases | drug-related AE resulting in permanent treatment discontinuation (43 patients, 40-200 mg BID): No drug-related AE | grade of the majority of TEAEs (43 patients, 40-200 mg BID): Grade 1 or Grade 2 | treatment-related deaths (43 patients, 40-200 mg BID): no treatment-related deaths | DLTs (43 patients, any dose level of 40-200 mg): No DLTs | cases of suspected differentiation syndrome related to the present compound (43 patients, patient with TP-53 mutation): One | Differentiation syndrome (DS) (57 patients, 40-300 mg): 3 patients | drug-related AE resulting in permanent treatment discontinuation (57 patients, 40-300 mg): No drug-related AE | treatment-related deaths (57 patients, 40-300 mg): no treatment-related deaths | DLTs (57 patients, any dose level of 40-300 mg): no DLTs | Patients with Any TEAE (Arm A N=14, Any Grade): 14 (100.0) n (%) | TEAE: Alanine aminotransferase increased (Arm A N=14, Any Grade): 1 (7.1) n (%) | TEAE: Anaemia (Arm A N=14, Any Grade): 5 (35.7) n (%) | TEAE: Aspartate aminotransferase increased (Arm A N=14, Any Grade): 2 (14.3) n (%) | TEAE: Blood and lymphatic system disorders (Arm A N=14, Any Grade): 10 (71.4) n (%) | TEAE: Constipation (Arm A N=14, Any Grade): 3 (21.4) n (%) | TEAE: Decreased appetite (Arm A N=14, Any Grade): 3 (21.4) n (%) | TEAE: Disease progression (Arm A N=14, Any Grade): 1 (7.1) n (%) | TEAE: Dyspnoea (Arm A N=14, Any Grade): 3 (21.4) n (%) | TEAE: Epistaxis (Arm A N=14, Any Grade): 1 (7.1) n (%) | TEAE: Fatigue (Arm A N=14, Any Grade): 3 (21.4) n (%) | TEAE: Gastrointestinal disorders (Arm A N=14, Any Grade): 9 (64.3) n (%) | TEAE: General disorders and administration site disorders (Arm A N=14, Any Grade): 8 (57.1) n (%) | TEAE: Headache (Arm A N=14, Any Grade): 5 (35.7) n (%) | TEAE: Hemorrhoids (Arm A N=14, Any Grade): 0 n (%) | TEAE: Hypertriglyceridaemia (Arm A N=14, Any Grade): 1 (7.1) n (%) | TEAE: Hypoalbuminaemia (Arm A N=14, Any Grade): 3 (21.4) n (%) | TEAE: Hypocalcaemia (Arm A N=14, Any Grade): 3 (21.4) n (%) | TEAE: Hypokalaemia (Arm A N=14, Any Grade): 2 (14.3) n (%) | TEAE: Hypomagnaesemia (Arm A N=14, Any Grade): 3 (21.4) n (%) | TEAE: Hyponatraemia (Arm A N=14, Any Grade): 4 (28.6) n (%) | TEAE: Infections and Infestations (Arm A N=14, Any Grade): 8 (57.1) n (%) | TEAE: Investigations (Arm A N=14, Any Grade): 10 (71.4) n (%) | TEAE: Metabolism and nutrition disorders (Arm A N=14, Any Grade): 11 (78.6) n (%) | TEAE: Musculoskeletal and connective tissue disorders (Arm A N=14, Any Grade): 7 (50.0) n (%) | TEAE: Nausea (Arm A N=14, Any Grade): 5 (35.7) n (%) | TEAE: Nervous System Disorders (Arm A N=14, Any Grade): 7 (50.0) n (%) | TEAE: Oedema peripheral (Arm A N=14, Any Grade): 2 (14.3) n (%) | TEAE: Pain in extremity (Arm A N=14, Any Grade): 3 (21.4) n (%) | TEAE: Platelet count decreased (Arm A N=14, Any Grade): 3 (21.4) n (%) | TEAE: Pneumonia (Arm A N=14, Any Grade): 2 (14.3) n (%) | TEAE: Pruritus (Arm A N=14, Any Grade): 3 (21.4) n (%) | TEAE: Pyrexia (Arm A N=14, Any Grade): 3 (21.4) n (%) | TEAE: Respiratory, thoracic and mediastinal disorders (Arm A N=14, Any Grade): 6 (42.9) n (%) | TEAE: Sepsis (Arm A N=14, Any Grade): 2 (14.3) n (%) | TEAE: Skin and subcutaneous tissue disorders (Arm A N=14, Any Grade): 5 (35.7) n (%) | TEAE: Stomatitis (Arm A N=14, Any Grade): 1 (7.1) n (%) | TEAE: Vomiting (Arm A N=14, Any Grade): 3 (21.4) n (%) | related TEAE: Aspartate aminotransferase increased (Arm A N=14, Any Grade): 0 n (%) | related TEAE: Blood and lymphatic system disorders (Arm A N=14, Any Grade): 0 n (%) | related TEAE: Decreased appetite (Arm A N=14, Any Grade): 2 (14.3) n (%) | related TEAE: Differentiation syndrome (Arm A N=14, Any Grade): 1 (7.1) n (%) | related TEAE: Gastrointestinal disorders (Arm A N=14, Any Grade): 2 (14.3) n (%) | related TEAE: General disorders and administration site conditions (Arm A N=14, Any Grade): 1 (7.1) n (%) | related TEAE: Headache (Arm A N=14, Any Grade): 1 (7.1) n (%) | related TEAE: Hypertriglyceridaemia (Arm A N=14, Any Grade): 0 n (%) | related TEAE: Hyperuricaemia (Arm A N=14, Any Grade): 1 (7.1) n (%) | related TEAE: Increased appetite (Arm A N=14, Any Grade): 1 (7.1) n (%) | related TEAE: Investigations (Arm A N=14, Any Grade): 0 n (%) | related TEAE: Leukocytosis (Arm A N=14, Any Grade): 0 n (%) | related TEAE: Metabolism and nutrition disorders (Arm A N=14, Any Grade): 4 (28.6) n (%) | related TEAE: Nausea (Arm A N=14, Any Grade): 2 (14.3) n (%) | related TEAE: Neoplasms benign, malignant and unspecified (incl cysts and polyps) (Arm A N=14, Any Grade): 1 (7.1) n (%) | related TEAE: Nervous system disorders (Arm A N=14, Any Grade): 1 (7.1) n (%) | related TEAE: Thirst (Arm A N=14, Any Grade): 1 (7.1) n (%) | related TEAE: Vomiting (Arm A N=14, Any Grade): 2 (14.3) n (%) | Patients with Any TEAE (Arm A N=14, ≥Grade 3): 14 (100.0) n (%) | TEAE: Alanine aminotransferase increased (Arm A N=14, ≥Grade 3): 0 n (%) | TEAE: Anaemia (Arm A N=14, ≥Grade 3): 4 (28.6) n (%) | TEAE: Aspartate aminotransferase increased (Arm A N=14, ≥Grade 3): 1 (7.1) n (%) | TEAE: Blood and lymphatic system disorders (Arm A N=14, ≥Grade 3): 8 (57.1) n (%) | TEAE: Constipation (Arm A N=14, ≥Grade 3): 0 n (%) | TEAE: Decreased appetite (Arm A N=14, ≥Grade 3): 0 n (%) | TEAE: Disease progression (Arm A N=14, ≥Grade 3): 1 (7.1) n (%) | TEAE: Dyspnoea (Arm A N=14, ≥Grade 3): 1 (7.1) n (%) | TEAE: Epistaxis (Arm A N=14, ≥Grade 3): 0 n (%) | TEAE: Fatigue (Arm A N=14, ≥Grade 3): 0 n (%) | TEAE: Gastrointestinal disorders (Arm A N=14, ≥Grade 3): 1 (7.1) n (%) | TEAE: General disorders and administration site disorders (Arm A N=14, ≥Grade 3): 2 (14.3) n (%) | TEAE: Headache (Arm A N=14, ≥Grade 3): 0 n (%) | TEAE: Hemorrhoids (Arm A N=14, ≥Grade 3): 0 n (%) | TEAE: Hypertriglyceridaemia (Arm A N=14, ≥Grade 3): 0 n (%) | TEAE: Hypoalbuminaemia (Arm A N=14, ≥Grade 3): 0 n (%) | TEAE: Hypocalcaemia (Arm A N=14, ≥Grade 3): 0 n (%) | TEAE: Hypokalaemia (Arm A N=14, ≥Grade 3): 0 n (%) | TEAE: Hypomagnaesemia (Arm A N=14, ≥Grade 3): 0 n (%) | TEAE: Hyponatraemia (Arm A N=14, ≥Grade 3): 0 n (%)
